Key:
[1] = test system: TNF-α in serum of ICR mice; experiment: Serum TNF-α induced by intraperitoneal LPS; format: in vivo, mouse; conditions: perorally 60 min prior to LPS, blood 90 min after
Method: Male young ICR mice received intraperitoneal injection of LPS (E. coli O111:B4). Compound F was administered perorally 60 min prior to LPS challenge and blood was drawn 90 min subsequent to challenge. Vehicle control mice received the pharmacological carrier used for Compound F only. Concentration of TNF-α in the serum was determined by ELISA method. […] For reference, dexamethasone (Dex, Sigma) was treated (15 mg/kg, oral).

[2] = test system: S.D. rats with Mycobacterium butyricum-induced polyarthritis; experiment: Rat adjuvant-induced arthritis model; format: in vivo
Method: To induce polyarthritis, six-week-old male S.D. rats received intradermal injection (base of tail) of 100 μl of Mycobacterium butyricum (Cat. No. 264010, Difco) in mineral oil (5 mg/ml) on Day 0. The test compound, Compound F, was given once daily at Day 1, 2, 3, 4, 5, 8, 10, 12 and 14 by oral gavage. […] The paw thickness was measured with digital caliper (Mitutoyo, Japan) and the arthritic index was accessed (FIG. 21).

[3] = test system: NF-κB in stably transfected A549 cells; experiment: NF-κB reporter assay; format: cell-based; conditions: PMA 10 ng/ml, 6 hr
Method: Cells were transferred into each well of 96 well white opaque plates (1×10^4 cells/well/50 μl) and incubated 24 hr at 37° C. in 5% CO2 incubator. The test compound, Compound F, was added to each well, and 1 hr later, phorbol 12-myristate 13-acetate (PMA) (10 ng/ml) was added into each well. Plates were incubated further for 6 hr at 37° C. in 5% CO2 incubator. One hundred microliter of Dual-glo FireFly substrate (Promega) was added and incubated for 10 min. Luminescence of each well was measured with a luminometer (Victor II) (FIG. 23).

[4] = test system: TNF-α production in THP-1 cells; experiment: LPS-induced TNF-α production in THP-1 cells; format: cell-based; conditions: Homo sapiens, LPS 100 ng/ml, 6 hr
Method: LPS-induced TNF-α production in THP-1 cells: THP-1 cells were incubated with 200 nM PMA for 24 hr. Cells were harvested with trypsin and seeded into 96 well tissue culture plates (2×10^4 cells/well). The test compound, Compound F, was added to each well followed by LPS (100 ng/ml). The cells were further incubated for 6 hr at 37° C. in a CO2 incubator. Media was collected and concentration of TNF-α was determined with the ELISA kit (OptEIA, BD).

[5] = test system: IL-2 production in Jurkat cells; experiment: PMA/ionomycin-induced IL-2 production in Jurkat cells; format: cell-based; conditions: Homo sapiens, 6 hr
Method: PMA/lonomycin-induced IL-2 production in Jurkat cells: Jurkat cells were seeded into 96 well tissue culture plates (1×10^5 cells/well) and treated with the test compound, Compound F, and further incubated for 60 min at 37° C. in a CO2 incubator. Stimulant (10 ng/ml PMA and 1 μg/ml ionomycin) was added into each well, and the cells were further incubated for 6 hr at 37° C. in a CO2 incubator. Supernatant was collected and concentration of IL-2 was determined with the ELISA kit (OptEIA, BD).

IC50 [4]: 7.08 µM
IC50 [5]: 8.48 µM
SMILES: CC(C)C[C@H]1C(=O)N(CCC(c2ccccc2)c2ccccc2)C[C@H]2N1C(=O)CN(C)N2C(=O)NCc1ccccc1 [Compound F]
LPS-induced TNF-α in serum [1]: reduces LPS-induced TNF-α production in serum in a dose-dependent manner
increase of paw thickness ([2]; oral 30 mg/kg): significantly ameliorated the increase of paw thickness
increase of paw thickness ([2]; oral 100 mg/kg): significantly ameliorated the increase of paw thickness
NF-κB reporter activity [3]: effective in inhibiting NF-κB transcription

Source: patent publication US7671054B1, “Reverse-turn mimetics and method relating thereto” (Choongwae Pharma Corporation, priority 2001, dated 2010)
